We go through 34 compounds from patent US8859549B2, “Potassium channel modulators” (AbbVie, Inc., priority 2011, dated 2014).

As usually defined, the EC50 is the midpoint of the concentration-response curve.

The assay deals with T1, KCNQ 2/3 channels (Homo sapiens, UniProt O43525+O43526).
T1 construct: expressed in transfected cells; host or cells: HEK293
Kind of assay: KCNQ 2/3 channel activation, thallium flux FLIPR assay (BTC-AM dye). In kind it is cell-based. The conditions noted are these: for Emax: HEK293, maximum response relative to the response of 10 μM retigabine (set at 100%), HEK293 KCNQ2/KCNQ3 cells, read-out: % MAX; for EC50: HEK293 cells stably expressing human KCNQ2 and KCNQ3 subunits, thallium-induced fluorescence, 4 min compound incubation. The gist of the method: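 HEK293 cells stably expressing human KCNQ2/KCNQ3 were loaded with BTC-AM (3 μg/mL, 2 h, RT) and preincubated with compound for 4 min in pH 7.3 gluconate buffer containing 0.1 mM ouabain. Flux was triggered by 6 mM TlNO3/10 mM K2SO4 and read for 3 min; EC50 came from summed responses over basal, with maximum relative to 10 μM retigabine (100%).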

For the compound `Nc1ccc(Sc2nn(NC(=O)Cc3ccc(Cl)cc3)c(=O)c3ccccc23)cc1` [Example 105, N-{4-[(4-aminophenyl)sulfanyl]-1-oxophthalazin-2(1H)-yl}-2-(4-chlorophenyl)acetamide], the Emax was 120% and a half-maximal effect (EC50) was put at 0.889 µM. On to `CC(C)(C)OC(=O)Nc1ccc(S(=O)(=O)c2nn(NC(=O)Cc3ccc(Cl)cc3)c(=O)c3ccccc23)cc1` [Example 106, tert-butyl{4-[(3-{[(4-chlorophenyl)acetyl]amino}-4-oxo-3,4-dihydrophthalazin-1-yl)sulfonyl]phenyl}carbamate], for which the Emax was found to be 46.2% and the concentration giving a half-maximal response (EC50) is 2.01 µM.

On to `CN1CCN(c2nn(NC(=O)Cc3ccc(Cl)cc3)c(=O)c3ccccc23)CC1` [Example 107, 2-(4-chlorophenyl)-N-[4-(4-methylpiperazin-1-yl)-1-oxophthalazin-2(1H)-yl]acetamide], for which the Emax was determined as 24.3%. In the case of `CCOC(=O)C(C)c1nn(NC(=O)Cc2ccc(Cl)cc2)c(=O)c2ccccc12` (stereo not drawn) [Example 109, ethyl 2-(3-{[(4-chlorophenyl)acetyl]amino}-4-oxo-3,4-dihydrophthalazin-1-yl)propanoate], the Emax turned out to be 53.2% and the response was half-maximal at 1.42 µM (EC50). As to `CC(C(=O)O)c1nn(NC(=O)Cc2ccc(Cl)cc2)c(=O)c2ccccc12` (stereo not drawn) [Example 110, 2-(3-{[(4-chlorophenyl)acetyl]amino}-4-oxo-3,4-dihydrophthalazin-1-yl)propanoic acid], the Emax was 2.26%. As for `O=C(Cc1ccccc1)Nn1nc(N2CCOCC2)c2ccccc2c1=O` [Example 111, N-[4-(morpholin-4-yl)-1-oxophthalazin-2(1H)-yl]-2-phenylacetamide], the Emax stood at 70.7% and the EC50 came out at 17.3 µM. In the case of `CC(C(=O)NC(C)(C)C)c1nn(NC(=O)Cc2ccc(Cl)cc2)c(=O)c2ccccc12` (stereo not drawn) [Example 112, N-tert-butyl-2-(3-{[(4-chlorophenyl)acetyl]amino}-4-oxo-3,4-dihydrophthalazin-1-yl)propanamide], the Emax was 17.1%.

On to `CC(C(=O)NCC(C)(C)C)c1nn(NC(=O)Cc2ccc(Cl)cc2)c(=O)c2ccccc12` (stereo not drawn) [Example 113, 2-(3-{[(4-chlorophenyl)acetyl]amino}-4-oxo-3,4-dihydrophthalazin-1-yl)-N-(2,2-dimethylpropyl)propanamide], for which the Emax is 21.8%. The same measure, in the same setting: under `O=C(O)Cc1nn(NC(=O)Cc2ccc(Cl)cc2)c(=O)c2ccccc12` [Example 114, (3-{[(4-chlorophenyl)acetyl]amino}-4-oxo-3,4-dihydrophthalazin-1-yl)acetic acid] stands 3.72%; under `Nc1ccc(S(=O)(=O)c2nn(NC(=O)Cc3ccc(Cl)cc3)c(=O)c3ccccc23)cc1` [Example 115, N-{4-[(4-aminophenyl)sulfonyl]-1-oxophthalazin-2(1H)-yl}-2-(4-chlorophenyl)acetamide], 42.2%. `CCOC(=O)Cc1nn(NC(=O)Cc2ccc(Cl)cc2)c(=O)c2ccccc12` [Example 116, ethyl(3-{[(4-chlorophenyl)acetyl]amino}-4-oxo-3,4-dihydrophthalazin-1-yl)acetate]: the Emax was determined as 61.4% and a half-maximal response (EC50) required 7.62 µM.

On to `CCOC(=O)C(NC(=O)Cc1ccc(Cl)cc1)c1nn(NC(=O)Cc2ccc(Cl)cc2)c(=O)c2ccccc12` (stereo not drawn) [Example 117, ethyl{[(4-chlorophenyl)acetyl]amino}(3-{[(4-chlorophenyl)acetyl]amino}-4-oxo-3,4-dihydrophthalazin-1-yl)acetate], for which the Emax came to 26.2%.

For `CC(C)(C)OC(=O)NCc1nn(NC(=O)Cc2ccc(C(F)(F)F)cc2)c(=O)c2ccccc12` [Example 118, tert-butyl{[4-oxo-3-({[4-(trifluoromethyl)phenyl]acetyl}amino)-3,4-dihydrophthalazin-1-yl]methyl}carbamate], the Emax came out at 40.7% and the EC50 came to 2.85 µM. As for `CC(C)(C)OC(=O)NCc1nn(NC(=O)C[C@@H]2CC[C@H]3C[C@@H]2C3(C)C)c(=O)c2ccccc12` [Example 119, tert-butyl{[3-({[(1S,2S,5S)-6,6-dimethylbicyclo[3.1.1]hept-2-yl]acetyl}amino)-4-oxo-3,4-dihydrophthalazin-1-yl]methyl}carbamate], the Emax worked out at 33.9%. In the case of `O=C(Cc1ccc(Cl)cc1)Nn1nc(CCO)c2ccccc2c1=O` [Example 121, 2-(4-chlorophenyl)-N-[4-(2-hydroxyethyl)-1-oxophthalazin-2(1H)-yl]acetamide], the Emax worked out at 10.5%. On the same count and under the same terms, under `CC(C)(C)NC(=O)Cc1nn(NC(=O)Cc2ccc(Cl)cc2)c(=O)c2ccccc12` [Example 122, N-{4-[2-(tert-butylamino)-2-oxoethyl]-1-oxophthalazin-2(1H)-yl}-2-(4-chlorophenyl)acetamide] stands 14.2%. Regarding `CC(C)(C)CNC(=O)Cc1nn(NC(=O)Cc2ccc(Cl)cc2)c(=O)c2ccccc12` [Example 123, 2-(4-chlorophenyl)-N-[4-{2-[(2,2-dimethylpropyl)amino]-2-oxoethyl}-1-oxophthalazin-2(1H)-yl]acetamide], the Emax came to 13%. Take `CC(C)(C)OC(=O)NCc1nn(NC(=O)CC2CCC(F)(F)CC2)c(=O)c2ccccc12` [Example 124, tert-butyl[(3-{[(4,4-difluorocyclohexyl)acetyl]amino}-4-oxo-3,4-dihydrophthalazin-1-yl)methyl]carbamate]: the Emax is 72.5% and the EC50 was 8.05 µM.

As to `CC(C)(C)OC(=O)NCc1nn(NC(=O)Cc2ccc(F)cc2)c(=O)c2ccccc12` [Example 125, tert-butyl[(3-{[(4-fluorophenyl)acetyl]amino}-4-oxo-3,4-dihydrophthalazin-1-yl)methyl]carbamate], the Emax was determined as 93.1% and the EC50 stood at 9.9 µM.

In the case of `CC(C)(C)OC(=O)NCc1nn(NC(=O)CC2CCCCC2)c(=O)c2ccccc12` [Example 126, tert-butyl({3-[(cyclohexylacetyl)amino]-4-oxo-3,4-dihydrophthalazin-1-yl}methyl)carbamate], the Emax was found to be 25.6%. Take `O=C(Cc1ccc(Cl)cc1)Nn1nc(Oc2ccccc2)c2ccccc2c1=O` [Example 127, 2-(4-chlorophenyl)-N-(1-oxo-4-phenoxyphthalazin-2(1H)-yl)acetamide]: the Emax came to 87.4% and it took 0.18 µM to reach a half-maximal effect (EC50). With `O=C(Cc1ccc(Cl)cc1)Nn1nc(CNC(=O)OC2CCCCC2)c2ccccc2c1=O` [Example 128, cyclohexyl[(3-{[(4-chlorophenyl)acetyl]amino}-4-oxo-3,4-dihydrophthalazin-1-yl)methyl]carbamate], the Emax came to 21.6%. For the compound `O=C(Cc1ccc(Cl)cc1)Nn1nc(CNC(=O)OCC(F)(F)F)c2ccccc2c1=O` [Example 129, 2,2,2-trifluoroethyl[(3-{[(4-chlorophenyl)acetyl]amino}-4-oxo-3,4-dihydrophthalazin-1-yl)methyl]carbamate], the Emax was determined as 33.7% and the 50% effective concentration (EC50) amounted to 1.28 µM.

Turning to `CS(=O)(=O)c1ccc(CC(=O)Nn2nc(N3CCOCC3)c3ccccc3c2=O)cc1` [Example 130, 2-[4-(methylsulfonyl)phenyl]-N-[4-(morpholin-4-yl)-1-oxophthalazin-2(1H)-yl]acetamide], the Emax worked out at 5.33%. For the compound `O=C(Cc1cccc(Oc2ccccc2)c1)Nn1nc(N2CCOCC2)c2ccccc2c1=O` [Example 131, N-[4-(morpholin-4-yl)-1-oxophthalazin-2(1H)-yl]-2-(3-phenoxyphenyl)acetamide], the Emax is 17.1%. For the compound `O=C(Cc1ccc(OC(F)(F)F)cc1)Nn1nc(N2CCOCC2)c2ccccc2c1=O` [Example 132, N-[4-(morpholin-4-yl)-1-oxophthalazin-2(1H)-yl]-2-[4-(trifluoromethoxy)phenyl]acetamide], the Emax came out at 105% and the response was half-maximal at 1.69 µM (EC50). In the case of `CC(C)(C)CC(=O)Nn1nc(N2CCOCC2)c2ccccc2c1=O` [Example 135, 3,3-dimethyl-N-[4-(morpholin-4-yl)-1-oxophthalazin-2(1H)-yl]butanamide], the Emax is 75.3% and the concentration for a half-maximal effect (EC50) came to 11.8 µM. The matching figures for `O=C(CC(F)(F)F)Nn1nc(N2CCOCC2)c2ccccc2c1=O` [Example 136, 3,3,3-trifluoro-N-[4-(morpholin-4-yl)-1-oxophthalazin-2(1H)-yl]propanamide]: 49.1% and 6.23 µM. In the case of `O=C(CC1CCCC1)Nn1nc(N2CCOCC2)c2ccccc2c1=O` [Example 137, 2-cyclopentyl-N-[4-(morpholin-4-yl)-1-oxophthalazin-2(1H)-yl]acetamide], the Emax was 135% and it took 7.68 µM to reach a half-maximal effect (EC50). The matching figures for `O=C(CC1CCCCC1)Nn1nc(N2CCOCC2)c2ccccc2c1=O` [Example 138, 2-cyclohexyl-N-[4-(morpholin-4-yl)-1-oxophthalazin-2(1H)-yl]acetamide]: 153% and 3.89 µM. With `Cc1ccccc1CC(=O)Nn1nc(N2CCOCC2)c2ccccc2c1=O` [Example 139, 2-(2-methylphenyl)-N-[4-(morpholin-4-yl)-1-oxophthalazin-2(1H)-yl]acetamide], the Emax is -1.4%. With `Cc1cccc(CC(=O)Nn2nc(N3CCOCC3)c3ccccc3c2=O)c1` [Example 140, 2-(3-methylphenyl)-N-[4-(morpholin-4-yl)-1-oxophthalazin-2(1H)-yl]acetamide], the Emax worked out at 103% and a half-maximal effect (EC50) was put at 6.89 µM.

As to `Cc1ccc(CC(=O)Nn2nc(N3CCOCC3)c3ccccc3c2=O)cc1` [Example 141, 2-(4-methylphenyl)-N-[4-(morpholin-4-yl)-1-oxophthalazin-2(1H)-yl]acetamide], the Emax stood at 72% and the concentration giving a half-maximal response (EC50) came out at 5.24 µM. As to `O=C(Cc1ccccc1[N+](=O)[O-])Nn1nc(N2CCOCC2)c2ccccc2c1=O` [Example 142, N-[4-(morpholin-4-yl)-1-oxophthalazin-2(1H)-yl]-2-(2-nitrophenyl)acetamide], the Emax came to 1.59%.
